Results: the NIST ThermoML archive (doi:10.1021/je049894j)
± gives the expanded uncertainty stated by the source.

Conditions: Liquid

SMILES | vapor or sublimation pressure (468.15 K) | vapor or sublimation pressure (483.15 K) | vapor or sublimation pressure (498.15 K) | vapor or sublimation pressure (513.15 K)
CCCCO [butan-1-ol] | 833 ± 26 kPa | 1182 ± 37 kPa | 1558 ± 48 kPa | 2027 ± 63 kPa
CCC(C)O (centres undefined) [butan-2-ol] | 1351 ± 31 kPa | 1791 ± 39 kPa | 2329 ± 49 kPa | 2946 ± 60 kPa
CCCCC [pentane] | 3286 ± 100 kPa |  |  | 
